In publication PMC2819846 (Mutation research, 2008):

Assays:
Salmonella TA104 = assay: Salmonella plate-incorporation mutagenicity assay, strain TA104, with S9 mix; format: cell-based
Salmonella TA100 = assay: Salmonella plate-incorporation mutagenicity assay, strain TA100; format: cell-based
strain TA100 = format: cell-based, Salmonella; settings: TA100 liquid-suspension, 5 µg/ml
Salmonella TA98 = assay: Salmonella plate-incorporation mutagenicity assay, strain TA98, with S9 mix; format: cell-based
[1] = system: DNA from Salmonella TA100; assay: Stable DNA adducts by 32P-postlabeling in DNA of treated TA100; format: cell-based; settings: TA100, 5 µg/ml; DMSO 0.024 ± 0.000
[2] = system: DNA from Salmonella TA100; assay: Abasic sites by aldehydic-site assay in DNA of treated TA100; format: cell-based; settings: TA100, 5 µg/ml; DMSO 5.9 ± 0.33

O[C@@H]1C=Cc2c(ccc3ccc4ccsc4c23)[C@H]1O (racemic) [P[4,3-b]T 8,9-diol, (±)-trans-8,9-Dihydrophenanthro[4,3-b]thiophene 8,9 diol-]
Rev/plate (Salmonella TA104; TA104 +S9, Test 1, 0.5 µg/plate, zero-dose 379/400/370): 700/693 | Rev/plate (Salmonella TA104; TA104 +S9, Test 1, 1 µg/plate, zero-dose 379/400/370): 1035/1060 | Rev/plate (Salmonella TA104; TA104 +S9, Test 1, 2.5 µg/plate, zero-dose 379/400/370): 1698/1615 | Rev/plate (Salmonella TA104; TA104 +S9, Test 1, 5 µg/plate, zero-dose 379/400/370): 1986/1995 | Rev/plate (Salmonella TA104; TA104 +S9, Test 3, 0.5 µg/plate, zero-dose 402/395/336): 824/707 | Rev/plate (Salmonella TA104; TA104 +S9, Test 3, 1 µg/plate, zero-dose 402/395/336): 1210/1178 | Rev/plate (Salmonella TA104; TA104 +S9, Test 3, 2.5 µg/plate, zero-dose 402/395/336): 1827/1822 | Rev/plate (Salmonella TA104; TA104 +S9, Test 3, 5 µg/plate, zero-dose 402/395/336): 1980/1970 | Mutagenic potency, Revertants/µg ± S.E., TA104 (Salmonella TA104; plate-incorporation, +S9): 577 ± 63 rev/µg | Mutagenicity call TA104 (Salmonella TA104; plate-incorporation, +S9): (+) (Called mutagenic (+) based on showing reproducible, dose-related increases in rev/plate that reached or exceeded 2-fold relative to zero-dose controls) | Rev/plate (Salmonella TA100; TA100 +S9, Test 1, 2 µg/plate, zero-dose 99/110/110): 660 rev/plate | Rev/plate (Salmonella TA100; TA100 +S9, Test 1, 5 µg/plate, zero-dose 99/110/110): 938 rev/plate | Rev/plate (Salmonella TA100; TA100 +S9, Test 1, 10 µg/plate, zero-dose 99/110/110): 1120 rev/plate | Rev/plate (Salmonella TA100; TA100 +S9, Test 1, 20 µg/plate, zero-dose 99/110/110): 1175 rev/plate | Rev/plate (Salmonella TA100; TA100 +S9, Test 1, 40 µg/plate, zero-dose 99/110/110): 1027 rev/plate | Rev/plate (Salmonella TA100; TA100 +S9, Test 1, 80 µg/plate, zero-dose 99/110/110): 673 rev/plate | Rev/plate (Salmonella TA100; TA100 +S9, Test 2, 0.5 µg/plate, zero-dose 84/78/80): 205/219 | Rev/plate (Salmonella TA100; TA100 +S9, Test 2, 1 µg/plate, zero-dose 84/78/80): 318/270 | Rev/plate (Salmonella TA100; TA100 +S9, Test 2, 2.5 µg/plate, zero-dose 84/78/80): 703/655 | Rev/plate (Salmonella TA100; TA100 +S9, Test 2, 5 µg/plate, zero-dose 84/78/80): 857/907 | Rev/plate (Salmonella TA100; TA100 +S9, Test 3, 0.5 µg/plate, zero-dose 127/118/125): 412/353 | Rev/plate (Salmonella TA100; TA100 +S9, Test 3, 1 µg/plate, zero-dose 127/118/125): 610/511 | Rev/plate (Salmonella TA100; TA100 +S9, Test 3, 2.5 µg/plate, zero-dose 127/118/125): 951/868 | Rev/plate (Salmonella TA100; TA100 +S9, Test 3, 5 µg/plate, zero-dose 127/118/125): 985/1059 | Rev/plate (Salmonella TA100; TA100 +S9, Test 4, 0.5 µg/plate, zero-dose 112/140/115): 305/312 | Rev/plate (Salmonella TA100; TA100 +S9, Test 4, 1 µg/plate, zero-dose 112/140/115): 487/469 | Rev/plate (Salmonella TA100; TA100 +S9, Test 4, 2.5 µg/plate, zero-dose 112/140/115): 976/966 | Rev/plate (Salmonella TA100; TA100 +S9, Test 4, 5 µg/plate, zero-dose 112/140/115): 1368/1275 | Rev/plate (Salmonella TA100; TA100 +S9, Test 5, 0.5 µg/plate, zero-dose 102/119/99): 269/235 | Rev/plate (Salmonella TA100; TA100 +S9, Test 5, 1 µg/plate, zero-dose 102/119/99): 430/375 | Rev/plate (Salmonella TA100; TA100 +S9, Test 5, 2.5 µg/plate, zero-dose 102/119/99): 865/878 | Rev/plate (Salmonella TA100; TA100 +S9, Test 5, 5 µg/plate, zero-dose 102/119/99): 1150/1115 | Times more mutagenic for base-substitution mutation than the parent P[4,3-b]T (Salmonella TA100; base-substitution strains (TA100, TA104), Table 2): 10–20 times | Mutagenic potency, Revertants/µg ± S.E., TA100 (Salmonella TA100; plate-incorporation, +S9): 274 ± 37 rev/µg | Mutagenicity call TA100 (Salmonella TA100; plate-incorporation, +S9): (+) (Called mutagenic (+) based on showing reproducible, dose-related increases in rev/plate that reached or exceeded 2-fold relative to zero-dose controls) | Fold increase in mutant frequency relative to DMSO-treated cells (strain TA100): 6.1 fold | Rev/10^6 survivors (strain TA100; DMSO 0.8): 4.9 Rev/10^6 survivors | Percent survival (strain TA100; DMSO 100): 47% | Rev/plate (Salmonella TA98; TA98 +S9, Test 1, 2 µg/plate, zero-dose 33/40/39): 73 rev/plate | Rev/plate (Salmonella TA98; TA98 +S9, Test 1, 5 µg/plate, zero-dose 33/40/39): 116 rev/plate | Rev/plate (Salmonella TA98; TA98 +S9, Test 1, 10 µg/plate, zero-dose 33/40/39): 140 rev/plate | Rev/plate (Salmonella TA98; TA98 +S9, Test 1, 20 µg/plate, zero-dose 33/40/39): 229 rev/plate | Rev/plate (Salmonella TA98; TA98 +S9, Test 1, 40 µg/plate, zero-dose 33/40/39): 435 rev/plate | Rev/plate (Salmonella TA98; TA98 +S9, Test 1, 80 µg/plate, zero-dose 33/40/39): 578 rev/plate | Rev/plate (Salmonella TA98; TA98 +S9, Test 2, 10 µg/plate, zero-dose 43/41/30): 167/151 | Rev/plate (Salmonella TA98; TA98 +S9, Test 2, 20 µg/plate, zero-dose 43/41/30): 127/225 | Rev/plate (Salmonella TA98; TA98 +S9, Test 2, 40 µg/plate, zero-dose 43/41/30): 383/448 | Rev/plate (Salmonella TA98; TA98 +S9, Test 2, 80 µg/plate, zero-dose 43/41/30): 479/475 | Rev/plate (Salmonella TA98; TA98 +S9, Test 3, 10 µg/plate, zero-dose 49/50/50): 251/249 | Rev/plate (Salmonella TA98; TA98 +S9, Test 3, 20 µg/plate, zero-dose 49/50/50): 298/321 | Rev/plate (Salmonella TA98; TA98 +S9, Test 3, 40 µg/plate, zero-dose 49/50/50): 561/624 | Rev/plate (Salmonella TA98; TA98 +S9, Test 3, 80 µg/plate, zero-dose 49/50/50): 828/725 | Mutagenic potency, Revertants/µg ± S.E., TA98 (Salmonella TA98; plate-incorporation, +S9): 11.0 ± 1.6 rev/µg | Mutagenicity call TA98 (Salmonella TA98; plate-incorporation, +S9): (+) (Called mutagenic (+) based on showing reproducible, dose-related increases in rev/plate that reached or exceeded 2-fold relative to zero-dose controls) | Stable adducts/10^8 nucleotides ± S.E [1]: 0.650 ± 0.045 adducts/10^8 nucleotides | Abasic sites/10^5 nucleotides ± S.E [2]: 5.5 ± 0.16 sites/10^5 nucleotides
